Legend:
[1] = test system: NF-κB pathway (SEAP) in THP1-Dual cells; assay: THP-1 Dual cell SEAP assay (L18-MDP stimulated); type: cell-based; conditions: Homo sapiens, THP1-Dual, read-out: NF-κB THP1 IC50 bin
Outline: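 IC50 values derive from non-linear regression of % inhibition, calculated against DMSO/L18-MDP-treated wells after media-only subtraction. NF-κB SEAP activity was read at OD 620-655 nm (QUANTI-Blue, 2 h, 37 °C) from supernatants of THP1-Dual cells. Cells had been compound-treated 30 min before overnight (20-24 h) stimulation with 10 ng/mL final L18-MDP.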

[2] = molecular target: T1, binding of His-XIAP(BIR2)-avi fusion protein to GST-RIPK2 fusion protein (RIPK2/XIAP) (Homo sapiens, UniProt O43353); assay: RIPK2-XIAP binding competition PPI assay (TR-FRET); conditions: RIPK2/XIAP binding competition PPI assay; for Emax: Amax, read-out: PPI Amax bin; for IC50: read-out: PPI IC50 bin
T1 construct: made in house; host or cells: baculovirus infected Sf9 cells
T1 sequence (O43353 1-310 limits assumed): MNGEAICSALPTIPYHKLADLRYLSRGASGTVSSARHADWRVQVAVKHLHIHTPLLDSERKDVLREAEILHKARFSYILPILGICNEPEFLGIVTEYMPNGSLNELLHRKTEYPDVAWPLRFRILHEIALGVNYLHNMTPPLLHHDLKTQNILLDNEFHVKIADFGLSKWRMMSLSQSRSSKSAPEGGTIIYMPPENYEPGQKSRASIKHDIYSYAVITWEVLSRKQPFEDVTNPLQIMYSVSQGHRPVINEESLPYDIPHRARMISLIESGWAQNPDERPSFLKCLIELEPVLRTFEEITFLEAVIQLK
Outline: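 Compounds (in DMSO, 100-fold stock) incubated 120 min at 23 °C with 1 nM GST-RIPK2 (aa 1-310) and 25 nM His-XIAP(BIR2 aa 152-231)-avi, plus anti-His-XL665 and anti-GST-Tb, in pH 7.5 Tris buffer. Read-out: 665/520 nm emission ratio. Normalized to no-inhibitor (0%) and 50 nM GSK583 (−100%); Amax binned A–D.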

[3] = molecular target: T2, GST-RIPK2 fusion protein (human RIPK2, amino acids 1-310) (Homo sapiens, UniProt O43353); assay: RIPK2 binding competition assay (TR-FRET, Tracer 199 displacement); conditions: 10 nM Tracer 199, 1 nM GST-RIPK2, read-out: RIPK2 IC50
T2 construct: made in house; host or cells: baculovirus infected Sf9 cells
T2 sequence (O43353 1-310): as the sequence (O43353 1-310 limits assumed) above
Outline: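 IC50 derived from the TR-FRET emission ratio (665/620 nm, 337 nm excitation), normalized with no-inhibitor and no-enzyme controls. Incubation 45 min at 22 °C, pH 7.5 Tris buffer, with final 10 nM tracer, 1 nM Sf9-expressed GST-RIPK2 fragment (aa 1-310) and 0.5 nM Tb-labelled anti-GST.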

## COc1cc2ncc(-c3cnc4c(c3)CC(=O)N4)n2cc1S(=O)(=O)C(C)(C)C [Example 83, 5-(6-(tert-butylsulfonyl)-7-methoxyimidazo[1,2-a]pyridin-3-yl)-1,3-dihydro-2H-pyrrolo[2,3-b]pyridin-2-one]
[1]
  IC50: > 1000 nM
[2]
  Emax: < 30%
  IC50: > 20 nM
[3]
  IC50: > 20 nM

## COc1cc2ncc(-c3cnc4c(c3)OCCN4)n2cc1S(=O)(=O)C(C)(C)C [Example 84, 7-(6-(tert-butylsulfonyl)-7-methoxyimidazo[1,2-a]pyridin-3-yl)-3,4-dihydro-2H-pyrido[3,2-b][1,4]oxazine]
[1]
  IC50: > 1000 nM
[2]
  Emax: 55 to 80%
  IC50: > 20 nM
[3]
  IC50: > 20 nM

## COc1cc2ncc(-c3cnc4c(c3)CCCN4)n2cc1S(=O)(=O)C(C)(C)C [Example 85, 6-(6-(tert-butylsulfonyl)-7-methoxyimidazo[1,2-a]pyridin-3-yl)-1,2,3,4-tetrahydro-1,8-naphthyridine]
[1]
  IC50: > 1000 nM
[2]
  Emax: 30 to 55%
  IC50: > 20 nM
[3]
  IC50: > 20 nM

## COc1cc2ncc(-c3ccc4c(c3)OCC4O)n2cc1S(=O)(=O)C(C)(C)C (centres unmarked) [Example 86, 6-(6-(tert-butylsulfonyl)-7-methoxyimidazo[1,2-a]pyridin-3-yl)-2,3-dihydrobenzofuran-3-ol]
[1]
  IC50: > 1000 nM
[2]
  Emax: < 30%
  IC50: > 20 nM
[3]
  IC50: > 20 nM

## COc1cc2ncc(-c3cnc4c(c3)OCC4O)n2cc1S(=O)(=O)C(C)(C)C (centres unmarked) [Example 87, 6-(6-(tert-butylsulfonyl)-7-methoxyimidazo[1,2-a]pyridin-3-yl)-2,3-dihydrofuro[3,2-b]pyridin-3-ol]
[1]
  IC50: > 1000 nM
[2]
  Emax: 30 to 55%
  IC50: > 20 nM
[3]
  IC50: > 20 nM

## COc1cc2ncc(-c3cnn(-c4ccccc4)c3F)n2cc1S(=O)(=O)C(C)(C)C [Example 88, 6-(tert-butylsulfonyl)-3-(5-fluoro-1-phenyl-1H-pyrazol-4-yl)-7-methoxyimidazo[1,2-a]pyridine]
[1]
  IC50: > 1000 nM
[2]
  Emax: < 30%
  IC50: > 20 nM
[3]
  IC50: > 20 nM

## COc1cc2ncc(-c3ccc4nc(N)ccc4c3)n2cc1S(=O)(=O)C(C)(C)C [Example 89, 6-(6-(tert-butylsulfonyl)-7-methoxyimidazo[1,2-a]pyridin-3-yl)quinolin-2-amine]
[1]
  IC50: 250 to 1000 nM
[2]
  Emax: < 30%
  IC50: > 20 nM
[3]
  IC50: 2.5 to 20 nM

## COc1cc2ncc(-c3ccc4c(N)nccc4c3)n2cc1S(=O)(=O)C(C)(C)C [Example 90, 6-(6-(tert-butylsulfonyl)-7-methoxyimidazo[1,2-a]pyridin-3-yl)isoquinolin-1-amine]
[1]
  IC50: 250 to 1000 nM
[2]
  Emax: < 30%
  IC50: > 20 nM
[3]
  IC50: 2.5 to 20 nM

## COc1cc2ncc(-c3cnc4nc(N)ccc4c3)n2cc1S(=O)(=O)C(C)(C)C [Example 91, 6-(6-(tert-butylsulfonyl)-7-methoxyimidazo[1,2-a]pyridin-3-yl)-1,8-naphthyridin-2-amine]
[1]
  IC50: > 1000 nM
[2]
  Emax: 30 to 55%
  IC50: > 20 nM
[3]
  IC50: > 20 nM

## COc1cc2ncc(-c3cnc4cc(N)ccc4c3)n2cc1S(=O)(=O)C(C)(C)C [Example 92, 3-(6-(tert-butylsulfonyl)-7-methoxyimidazo[1,2-a]pyridin-3-yl)quinolin-7-amine]
[1]
  IC50: > 1000 nM
[2]
  Emax: 30 to 55%
  IC50: > 20 nM
[3]
  IC50: > 20 nM

## COc1cc2ncc(-c3ccc4c(N)noc4c3)n2cc1S(=O)(=O)C(C)(C)C [Example 93, 6-(6-(tert-butylsulfonyl)-7-methoxyimidazo[1,2-a]pyridin-3-yl)benzo[d]isoxazol-3-amine]
[1]
  IC50: 250 to 1000 nM
[2]
  Emax: < 30%
  IC50: > 20 nM
[3]
  IC50: 2.5 to 20 nM

## COc1cc2ncc(-c3ccn4nccc4c3)n2cc1S(=O)(=O)C(C)(C)C [Example 94, 6-(tert-butylsulfonyl)-7-methoxy-3-(pyrazolo[1,5-a]pyridin-5-yl)imidazo[1,2-a]pyridine]
[1]
  IC50: 250 to 1000 nM
[2]
  Emax: < 30%
  IC50: > 20 nM
[3]
  IC50: 2.5 to 20 nM

## COc1cc2ncc(-c3ccc4nc(N)sc4c3)n2cc1S(=O)(=O)C(C)(C)C [Example 95, 6-(6-(tert-butylsulfonyl)-7-methoxyimidazo[1,2-a]pyridin-3-yl)benzo[d]thiazol-2-amine]
[1]
  IC50: > 1000 nM
[2]
  Emax: < 30%
  IC50: > 20 nM
[3]
  IC50: 2.5 to 20 nM

## COc1cc2ncc(-c3ccc4nc(N)oc4c3)n2cc1S(=O)(=O)C(C)(C)C [Example 96, 6-(6-(tert-butylsulfonyl)-7-methoxyimidazo[1,2-a]pyridin-3-yl)benzo[d]oxazol-2-amine]
[1]
  IC50: 250 to 1000 nM
[2]
  Emax: < 30%
  IC50: > 20 nM
[3]
  IC50: 2.5 to 20 nM

## COc1cc2ncc(-c3cc(C)c4nn(C)cc4c3)n2cc1S(=O)(=O)C(C)(C)C [Example 97, 5-(6-(tert-butylsulfonyl)-7-methoxyimidazo[1,2-a]pyridin-3-yl)-2,7-dimethyl-2H-indazole]
[1]
  IC50: > 1000 nM
[2]
  Emax: < 30%
  IC50: > 20 nM
[3]
  IC50: 2.5 to 20 nM

## COc1cc2ncc(-c3ccc4nc(N)[nH]c4c3)n2cc1S(=O)(=O)C(C)(C)C [Example 98, 6-(6-(tert-butylsulfonyl)-7-methoxyimidazo[1,2-a]pyridin-3-yl)-1H-benzo[d]imidazol-2-amine]
[1]
  IC50: > 1000 nM
[2]
  Emax: < 30%
  IC50: > 20 nM
[3]
  IC50: 2.5 to 20 nM

## COc1cc2ncc(-c3cn(C)c4ncccc34)n2cc1S(=O)(=O)C(C)(C)C [Example 99, 6-(tert-butylsulfonyl)-7-methoxy-3-(1-methyl-1H-pyrrolo[2,3-b]pyridin-3-yl)imidazo[1,2-a]pyridine]
[1]
  IC50: > 1000 nM
[2]
  Emax: < 30%
  IC50: > 20 nM
[3]
  IC50: 2.5 to 20 nM

## COc1cc2ncc(-c3ccc4nc(N)n(C)c4c3)n2cc1S(=O)(=O)C(C)(C)C [Example 100, 6-(6-(tert-butylsulfonyl)-7-methoxyimidazo[1,2-a]pyridin-3-yl)-1-methyl-1H-benzo[d]imidazol-2-amine]
[1]
  IC50: > 1000 nM
[2]
  Emax: < 30%
  IC50: > 20 nM
[3]
  IC50: 2.5 to 20 nM

## COc1cc2ncc(-c3ccc4c(c3)c(C)nn4C)n2cc1S(=O)(=O)C(C)(C)C [Example 101, 5-(6-(tert-butylsulfonyl)-7-methoxyimidazo[1,2-a]pyridin-3-yl)-1,3-dimethyl-1H-indazole]
[1]
  IC50: > 1000 nM
[2]
  Emax: < 30%
  IC50: > 20 nM
[3]
  IC50: 2.5 to 20 nM

## COc1cc2ncc(-c3ccc4c(N)nn(C)c4c3)n2cc1S(=O)(=O)C(C)(C)C [Example 102, 6-(6-(tert-butylsulfonyl)-7-methoxyimidazo[1,2-a]pyridin-3-yl)-1-methyl-1H-indazol-3-amine]
[1]
  IC50: > 1000 nM
[2]
  Emax: < 30%
  IC50: > 20 nM
[3]
  IC50: > 20 nM

## COc1cc2ncc(-c3ccc4c(N)n[nH]c4c3)n2cc1S(=O)(=O)C(C)(C)C [Example 103, 6-(6-(tert-butylsulfonyl)-7-methoxyimidazo[1,2-a]pyridin-3-yl)-1H-indazol-3-amine]
[1]
  IC50: > 1000 nM
[2]
  Emax: < 30%
  IC50: > 20 nM
[3]
  IC50: > 20 nM

## COc1cc2ncc(-c3ccc4oc(N)nc4c3)n2cc1S(=O)(=O)C(C)(C)C [Example 104, 5-(6-(tert-butylsulfonyl)-7-methoxyimidazo[1,2-a]pyridin-3-yl)benzo[d]oxazol-2-amine]
[1]
  IC50: > 1000 nM
[2]
  Emax: 30 to 55%
  IC50: > 20 nM
[3]
  IC50: > 20 nM

## COc1cc2ncc(-c3ccc4sc(N)nc4c3)n2cc1S(=O)(=O)C(C)(C)C [Example 105, 5-(6-(tert-butylsulfonyl)-7-methoxyimidazo[1,2-a]pyridin-3-yl)benzo[d]thiazol-2-amine]
[1]
  IC50: > 1000 nM
[2]
  Emax: 30 to 55%
  IC50: > 20 nM
[3]
  IC50: > 20 nM

## COc1cc2ncc(-c3ccc4cnn(C)c4c3)n2cc1S(=O)(=O)C(C)(C)C [Example 106, 6-(6-(tert-butylsulfonyl)-7-methoxyimidazo[1,2-a]pyridin-3-yl)-1-methyl-1H-indazole]
[1]
  IC50: > 1000 nM
[2]
  Emax: < 30%
  IC50: > 20 nM
[3]
  IC50: > 20 nM

## COc1cc2ncc(-c3cnn4c(C)c(C)ccc34)n2cc1S(=O)(=O)C(C)(C)C [Example 107, 6-(tert-butylsulfonyl)-3-(6,7-dimethylpyrazolo[1,5-a]pyridin-3-yl)-7-methoxyimidazo[1,2-a]pyridine]
[1]
  IC50: > 1000 nM
[2]
  Emax: 55 to 80%
  IC50: > 20 nM
[3]
  IC50: > 20 nM

## COc1cc2ncc(-c3ccc4c(C)nn(C)c4c3)n2cc1S(=O)(=O)C(C)(C)C [Example 108, 6-(6-(tert-butylsulfonyl)-7-methoxyimidazo[1,2-a]pyridin-3-yl)-1,3-dimethyl-1H-indazole]
[1]
  IC50: > 1000 nM
[2]
  Emax: < 30%
  IC50: > 20 nM
[3]
  IC50: > 20 nM
